Laboratory results from patent US20160333419A1, “GENE SIGNATURES ASSOCIATED WITH SENSITIVITY TO MDM2 INHIBITORS” (DAIICHI SANKYO COMPANY, LIMITED, priority 2014, published 2016).

Experiments:
Experiment in all cases: OncoPanel cytotoxicity assay
Assay type in all cases: cell-based
SK-LMS-1 = conditions: Homo sapiens, 72 hour incubation
Procedure: (§1) Cells were grown in RPMI 1640, 10% FBS, 2 mM L-alanyl-L-Glutamine, 1 mM Na Pyruvate, or a special medium in a humidified atmosphere of 5% CO2 at 37° C. Cells were seeded into 384-well plates and incubated in a humidified atmosphere of 5% CO2 at 37° C. Test compounds were added 24 hours post cell seeding. At the same time, a time zero, untreated cell plate was generated as a control. After a 72 hour incubation period, cells were fixed and stained with nuclear dye to allow visualization of nuclei.
(§2) Compounds were serially diluted 3.16-fold and assayed over 10 concentrations of inhibitor in a final assay concentration of 0.1% DMSO from the highest test concentration specified in the sample information chapter. Automated fluorescence microscopy was carried out using a GE Healthcare InCell Analyzer 1000, and images were collected with a 4× objective. Twelve bit tiff images were acquired using the InCell Analyzer 1000 3.2 and analyzed with Developer Toolbox 1.6 software.
(§3) Cell proliferation was measured by the signal intensity of the incorporated nuclear dye. The cell proliferation assay output is referred to as the relative cell count. To determine the cell proliferation end point, the cell proliferation data output is transformed to percent of control (POC) using the following formula: […]
(§4) Relative cell count IC50 (IC50) is the test compound's concentration that produces 50% of the cell proliferation inhibitory response or 50% cytotoxicity level. IC50 values were calculated using nonlinear regression to fit data to a sigmoidal 4 point, 4 parameter One-Site dose response model, where: y (fit)=A+[(B−A)/(1+((C/x)̂D))]. Curve-fitting, IC50 calculations and report generation were performed using a custom data reduction engine MathIQ based software (AIM). […] In these cases, the IC50 values were expressed as 40 μM and 10 μM, respectively (Table 2).

CGTH-W-1 = conditions: Homo sapiens, 72 hour incubation
Procedure: as §1, §2, §3, §4

C-33A = conditions: Homo sapiens, 72 hour incubation
Procedure: as §1, §2, §3, §4

RKO-AS45-1 = conditions: Homo sapiens, RKOAS451, 72 hour incubation
Procedure: as §1, §2, §3, §4

BHT-101 = conditions: Homo sapiens, 72 hour incubation
Procedure: as §1, §2, §3, §4

Calu6 = conditions: Homo sapiens, Calu-6, 72 hour incubation
Procedure: as §1, §2, §3, §4

FaDu = conditions: Homo sapiens, 72 hour incubation
Procedure: as §1, §2, §3, §4

SCC-9 = conditions: Homo sapiens, 72 hour incubation
Procedure: as §1, §2, §3, §4

Jurkat = conditions: Homo sapiens, 72 hour incubation
Procedure: as §1, §2, §3, §4

ChaGoK1 = conditions: Homo sapiens, ChaGo-K-1, 72 hour incubation
Procedure: as §1, §2, §3, §4

CAL-62 = conditions: Homo sapiens, 72 hour incubation
Procedure: as §1, §2, §3, §4

U-138MG = conditions: Homo sapiens, U138-MG, 72 hour incubation
Procedure: as §1, §2, §3, §4

A427 = conditions: Homo sapiens, A-427, 72 hour incubation
Procedure: as §1, §2, §3, §4

HLF = conditions: Homo sapiens, 72 hour incubation
Procedure: as §1, §2, §3, §4

SW872 = conditions: Homo sapiens, 72 hour incubation
Procedure: as §1, §2, §3, §4

HEC-1-A = conditions: Homo sapiens, 72 hour incubation
Procedure: as §1, §2, §3, §4

NCI-H508 = conditions: Homo sapiens, 72 hour incubation
Procedure: as §1, §2, §3, §4

LS-174T = conditions: Homo sapiens, LS174T, 72 hour incubation
Procedure: as §1, §2, §3, §4

MDA MB 231 = conditions: Homo sapiens, 72 hour incubation
Procedure: as §1, §2, §3, §4

Capan-2 = conditions: Homo sapiens, 72 hour incubation
Procedure: as §1, §2, §3, §4

MV-4-11 = conditions: Homo sapiens, MV4-11, 72 hour incubation
Procedure: as §1, §2, §3, §4

Hs 766T = conditions: Homo sapiens, Hs766T, 72 hour incubation
Procedure: as §1, §2, §3, §4

YAPC = conditions: Homo sapiens, 72 hour incubation
Procedure: as §1, §2, §3, §4

C-4 II = conditions: Homo sapiens, 72 hour incubation
Procedure: as §1, §2, §3, §4

DoTc2 4510 = conditions: Homo sapiens, 72 hour incubation
Procedure: as §1, §2, §3, §4

HUH-6 Clone 5 = conditions: Homo sapiens, HUH-6-clone5, 72 hour incubation
Procedure: as §1, §2, §3, §4

5637 = conditions: Homo sapiens, 72 hour incubation
Procedure: as §1, §2, §3, §4

MT-3 = conditions: Homo sapiens, 72 hour incubation
Procedure: as §1, §2, §3, §4

BM-1604 = conditions: Homo sapiens, 72 hour incubation
Procedure: as §1, §2, §3, §4

OCUG-1 = conditions: Homo sapiens, 72 hour incubation
Procedure: as §1, §2, §3, §4

Colo 320DM = conditions: Homo sapiens, 72 hour incubation
Procedure: as §1, §2, §3, §4

C32 = conditions: Homo sapiens, 72 hour incubation
Procedure: as §1, §2, §3, §4

RPMI 8226 = conditions: Homo sapiens, 72 hour incubation
Procedure: as §1, §2, §3, §4

HCT-15 = conditions: Homo sapiens, 72 hour incubation
Procedure: as §1, §2, §3, §4

Y79 = conditions: Homo sapiens, 72 hour incubation
Procedure: as §1, §2, §3, §4

J82 = conditions: Homo sapiens, 72 hour incubation
Procedure: as §1, §2, §3, §4

SW982 = conditions: Homo sapiens, 72 hour incubation
Procedure: as §1, §2, §3, §4

Daoy = conditions: Homo sapiens, 72 hour incubation
Procedure: as §1, §2, §3, §4

| SMILES | IC50 (SK-LMS-1) [µM] | IC50 (CGTH-W-1) [µM] | IC50 (C-33A) [µM] | IC50 (RKO-AS45-1) [µM] | IC50 (BHT-101) [µM] | IC50 (Calu6) [µM] | IC50 (FaDu) [µM] | IC50 (SCC-9) [µM] | IC50 (Jurkat) [µM] | IC50 (ChaGoK1) [µM] | IC50 (CAL-62) [µM] | IC50 (U-138MG) [µM] | IC50 (A427) [µM] | IC50 (HLF) [µM] | IC50 (SW872) [µM] | IC50 (HEC-1-A) [µM] | IC50 (NCI-H508) [µM] | IC50 (LS-174T) [µM] | IC50 (MDA MB 231) [µM] | IC50 (Capan-2) [µM] | other results |
| --- | --- | --- | --- | --- | --- | --- | --- | --- | --- | --- | --- | --- | --- | --- | --- | --- | --- | --- | --- | --- | --- |
| CC[C@@H]1CNC2(CC2)CN1C(=O)[C@@H]1C[C@@H](F)CN1C(=O)C1=C(C(C)C)N2C(=N[C@@](C)(c3ccc(Cl)nc3)[C@H]2c2ccc(Cl)c(F)c2)S1 [Compound A, [(5R,6S)-5-(4-Chloro-3-fluorophenyl)-6-(6-chloropyridin-3-yl)-6-methyl-3-(propan-2-yl)-5,6-dihydroimidazo[2,1-b][1,3]thiazol-2-yl][(2S,4R)-2-{[(6R)-6-ethyl-4,7-diazaspiro[2.5]oct-7-yl]carbonyl}-4-fluoropyrrolidin-1-yl]methanone] | > 40 | > 40 | > 40 | 0.471 | > 40 | > 40 | > 40 | > 40 | > 40 | > 40 | > 40 | > 40 | 1.65 | > 40 | > 40 | > 40 | > 40 | 0.497 | > 40 | > 40 | IC50 (MV-4-11): 0.372 µM; IC50 (Hs 766T): > 40 µM; IC50 (YAPC): > 40 µM; IC50 (C-4 II): > 40 µM; IC50 (DoTc2 4510): 39.6 µM; IC50 (HUH-6 Clone 5): 0.329 µM; IC50 5637: > 40 µM; IC50 (MT-3): 1.13 µM; IC50 (BM-1604): > 40 µM; IC50 (OCUG-1): > 40 µM; IC50 (Colo 320DM): > 40 µM; IC50 (C32): > 40 µM; IC50 (RPMI 8226): > 40 µM; IC50 (HCT-15): 32 µM; IC50 (Y79): 1.05 µM; IC50 (J82): > 40 µM; IC50 (SW982): 0.232 µM; IC50 (Daoy): > 40 µM |
| CC1(C)CCC2(CC1)N[C@@H](C(=O)N[C@@H]1CC[C@@H](C(N)=O)OC1)[C@H](c1ccnc(Cl)c1F)[C@]21C(=O)Nc2cc(Cl)ccc21 [Compound B, (3′R,4′S,5′R)—N-[(3R,6S)-6-carbamoyltetrahydro-2H-pyran-3-yl]-6″-chloro-4′-(2-chloro-3-fluoropyridin-4-yl)-4,4-dimethyl-2″-oxo-1″,2″-dihydrodispiro[cyclohexane-1,2′-pyrrolidine-3′,3″-indole]-5′-carboxamide] | > 10 | 8.04 | 5.49 | 0.074 | > 10 | 5.38 | > 10 | > 10 | > 10 | > 10 | > 10 | > 10 | 0.143 | > 10 | > 10 | > 10 | > 10 | 0.0615 | > 10 | > 10 | IC50 (MV-4-11): 0.0254 µM; IC50 (Hs 766T): > 10 µM; IC50 (YAPC): > 10 µM; IC50 (C-4 II): 9.1 µM; IC50 (DoTc2 4510): > 10 µM; IC50 (HUH-6 Clone 5): 0.0719 µM; IC50 5637: > 10 µM; IC50 (MT-3): 0.164 µM; IC50 (BM-1604): > 10 µM; IC50 (OCUG-1): > 10 µM; IC50 (Colo 320DM): > 10 µM; IC50 (C32): > 10 µM; IC50 (RPMI 8226): 0.065 µM; IC50 (HCT-15): > 10 µM; IC50 (Y79): 0.159 µM; IC50 (J82): > 10 µM; IC50 (SW982): 0.0209 µM; IC50 (Daoy): > 10 µM |
